Experimental data as given in patent US9663511B2, “Sphingosine 1-phosphate receptor antagonists” (ARROYO BIOSCIENCES, LLC, priority 2012, dated 2017).

Assays:
S1P5 receptor = S1P5 receptor (Homo sapiens (Human), UniProt Q9H228); assay: Antagonist assay (FLIPR TETRA, inhibition of reference agonist EC80) on S1P5; type: cell-based; conditions: tested as the citrate salt
Method: (§1) Antagonist percentage inhibition determinations were obtained by assaying sample compounds and referencing the control (EC80) wells for each profiled (GPCR) which evaluated binding to S1P2 and S1P5 receptors. The samples were run using a single addition assay protocol. The protocol design is as follows.
(§2) Unless specified otherwise, the sample compounds were diluted in 100% anhydrous DMSO including all dilutions. The compounds were tested as the citrate salt (1 equivalent per molecule). If the sample compound is provided in a different solvent all master stock dilutions are performed in the specified solvent. All control wells contained identical solvent final concentrations as the sample compound wells.
(§3) The sample compounds were transferred from a master stock solution into a daughter plate that was used in the assay. Each sample compound was diluted into an assay buffer (1×HBSS with 20 mM HEPES, 2.5 mM Probenecid, and 0.4% Free Fatty Acid BSA) at an appropriate concentration to obtain final specified concentrations.
(§4) Using the EC80 values that were determined real-time, stimulated all pre-incubated sample compounds and reference antagonists (if applicable) were compared with the EC80 values of reference agonist. These were read for 180 seconds using the FLIPR^TETRA (This assay added reference agonist to respective wells-then fluorescences measurements were collected to calculate IC50 values). All plates were subjected to appropriate baseline corrections. Once baseline corrections were processed, maximum fluorescence values were exported and data manipulated to calculate percentage activation, percentage inhibition and Z′.

[1] = Microsomal intrinsic clearance; conditions: for microsomal CLint at 1 μM / half-life at 1 μM: mouse, liver microsomes, mouse microsomes, test conc. 1 μM
S1P2 receptor = S1P2 receptor (Homo sapiens (Human), UniProt O95136); assay: Antagonist assay (FLIPR TETRA, inhibition of reference agonist EC80) on S1P2; type: cell-based; conditions: tested as the citrate salt
Sequence of S1P2 receptor (O95136 whole entry): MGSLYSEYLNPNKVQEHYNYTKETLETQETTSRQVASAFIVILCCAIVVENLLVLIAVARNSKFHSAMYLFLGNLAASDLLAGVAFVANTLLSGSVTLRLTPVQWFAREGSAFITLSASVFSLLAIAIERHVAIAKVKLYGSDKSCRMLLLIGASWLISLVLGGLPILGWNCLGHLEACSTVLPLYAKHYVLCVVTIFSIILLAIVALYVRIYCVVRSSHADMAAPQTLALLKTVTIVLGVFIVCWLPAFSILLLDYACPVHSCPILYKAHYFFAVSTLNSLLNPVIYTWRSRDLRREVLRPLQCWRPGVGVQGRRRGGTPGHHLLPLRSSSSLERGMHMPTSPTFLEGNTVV
Method: as §1, §2, §3, §4

[2] = In vitro plasma protein binding; type: in vitro ADME, mouse; conditions: for mean fraction bound (%): mouse plasma, test concentration 5 nM

Sequence of S1P5 receptor (Q9H228 whole entry): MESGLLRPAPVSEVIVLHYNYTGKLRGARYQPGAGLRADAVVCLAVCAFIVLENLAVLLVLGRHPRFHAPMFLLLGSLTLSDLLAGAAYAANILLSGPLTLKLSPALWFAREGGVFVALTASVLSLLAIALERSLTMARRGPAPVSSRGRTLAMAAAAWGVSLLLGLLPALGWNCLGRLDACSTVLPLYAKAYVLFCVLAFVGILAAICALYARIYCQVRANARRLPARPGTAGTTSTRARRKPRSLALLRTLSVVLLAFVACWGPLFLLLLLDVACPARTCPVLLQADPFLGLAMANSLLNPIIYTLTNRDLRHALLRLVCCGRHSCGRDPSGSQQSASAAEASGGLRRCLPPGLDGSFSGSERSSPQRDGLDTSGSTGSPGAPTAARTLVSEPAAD

IC50 (S1P5 receptor)	IC50 (S1P2 receptor)	Compound	further results
3.2 nM	11 nM	Cc1nn(C)c2nc(N(CC(=O)O)NC(=O)Nc3cc(Cl)nc(Cl)c3)cc(C(C)C)c12 [Compound 2]	stability in liver microsomes (in words) ([1]; compared with JTE013): much more stable in liver microsomes; microsomal CLint at 1 μM ([1]; NADPH-dependent Clint (microsomal intrinsic clearance)): 20 µL/min/mg; half-life at 1 μM ([1]; NADPH-dependent T1/2 (half-life)): 1.88 h; microsomal CLint at 1 μM ([1]; NADPH-free Clint (microsomal intrinsic clearance)): 9 µL/min/mg; half-life at 1 μM ([1]; NADPH-free T1/2 (half-life)): > 3 h; plasma protein binding (in words) ([2]; compared with JTE013 and compound 1): lower plasma protein binding; mean fraction bound (%) [2]: 77.0%
5700 nM	3000 nM	C=CCn1nc(C)c2c(C(C)C)cc(N(CC(=O)O)NC(=O)Nc3cc(Cl)nc(Cl)c3)nc21 [Compound 3]	
> 10000 nM	> 10000 nM	C=CCn1nc(C)c2c(C(F)(F)F)cc(NNC(=O)Nc3cc(Cl)nc(Cl)c3)nc21 [Compound 5]	
8.7 nM	52 nM	C=CCn1nc(C)c2c(C(C)C)cc(ONC(=O)Nc3cc(Cl)nc(Cl)c3)nc21 [Compound 6]	
20.9 nM	7 nM	Cc1nn(C)c2nc(N(CCO)NC(=O)Nc3cc(Cl)nc(Cl)c3)cc(C(C)C)c12 [Compound 9, N-(2,6-Dichloropyridin-4-yl)-2-(2-hydroxyethyl)-2-(4-isopropyl-1,3-dimethyl-1H-pyrazolo[3,4-b]pyridin-6-yl)hydrazine-1-carboxamide]	
165 nM	75 nM	C=CCn1nc(C)c2c(C(C)C)cc(NNC(=O)Nc3cc(Cl)nc(Cl)c3)nc21 [Compound 27]	
< 10 nM	5 nM	CC(C)c1cc(NNC(=O)Nc2cc(Cl)nc(Cl)c2)nc2c(CCCO)nn(C)c12 [Compound 33]	
13 nM	29 nM	CCOc1cc(NC(=O)NN(CCO)c2cc(C(C)C)c3c(C)nn(C)c3n2)cc(Cl)n1 [Compound 35]	
33 nM	10 nM	CCCOc1cc(NC(=O)NN(CCO)c2cc(C(C)C)c3c(C)nn(C)c3n2)cc(Cl)n1 [Compound 36]	
> 10000 nM	160 nM	COCCOc1cc(NC(=O)NN(CCO)c2cc(C(C)C)c3c(C)nn(C)c3n2)cc(Cl)n1 [Compound 37]	
4.6 nM	4 nM	CCNc1cc(NC(=O)NN(CCO)c2cc(C(C)C)c3c(C)nn(C)c3n2)cc(Cl)n1 [Compound 38]	
40 nM	19 nM	CCN(C)c1cc(NC(=O)NN(CCO)c2cc(C(C)C)c3c(C)nn(C)c3n2)cc(Cl)n1 [Compound 39]	
> 10000 nM	300 nM	Cc1nn(C)c2nc(N(CCO)NC(=O)Nc3cnc(Cl)c(Cl)c3)cc(C(C)C)c12 [Compound 40]	
> 10000 nM	> 10000 nM	Cc1nn(C)c2nc(N(CCO)NC(=O)Nc3ccc(Cl)nc3Cl)cc(C(C)C)c12 [Compound 41]	
290 nM	64 nM	Cc1nn(C)c2nc(N(CCO)NC(=O)Nc3cc(Cl)c(Cl)s3)cc(C(C)C)c12 [Compound 42]	
> 10000 nM	360 nM	Cc1sc(NC(=O)NN(CCO)c2cc(C(C)C)c3c(C)nn(C)c3n2)cc1Cl [Compound 43]	
74 nM	> 120 nM	Cc1nn(C)c2nc(N(CCO)NC(=O)Nc3cc(Cl)cc(C(F)(F)F)c3)cc(C(C)C)c12 [Compound 44]	
> 10000 nM	> 10000 nM	Cc1nn(C)c2nc(N(CCO)NC(=O)Nc3cc(Cl)no3)cc(C(C)C)c12 [Compound 45]	
		CC(C)NCC(O)COc1cccc2ccccc12 (centres unmarked) [Propanolol, reference compound]	mean fraction bound (%) [2]: 87.4%
